Reference: US8183234B2, “Tricyclic guanidine derivatives as sodium-proton exchange inhibitors” (Piramal Life Sciences Limited, priority 2004, dated 2012)
Where a name gives a salt, the structure may show the parent alone.

Row | SMILES | melting point [°C]
1 | CS(=O)(=O)O.CS(=O)(=O)O.Cc1cc(C(=O)NC(=N)N)cc2c1Oc1c(Cl)cc(N3CCN(C(C)C)CC3=O)cc1CS2(=O)=O [Example 60, N-[4-Chloro-2-(4-isopropyl-2-oxo-piperazin-1-yl)-6-methyl-10,10-dioxo-10,11-dihydro-5-oxa-10lambda*6*-thia-dibenzo[a,d]cycloheptene-8-carbonyl]-guanidine dimesylate] | 196 to 198
2 | CC(=O)N(CCN1CCOCC1)c1cc(Cl)c2c(c1)CS(=O)(=O)c1cc(C(=O)NC(=N)N)cc(C)c1O2.CS(=O)(=O)O.CS(=O)(=O)O [Example 68, N-(4-Chloro-8-guanidinocarbonyl-6-methyl-10,10-dioxo-10,11-dihydro-5-oxa-10lambda*6*-thia-dibenzo[a,d]cyclohepten-2-yl)-N-(2-morpholin-4-yl-ethyl)-acetamide dimesylate] | 198 to 200
3 | CCCCCCCCCCN1CCN(c2cc(Cl)c3c(c2)CS(=O)(=O)c2cc(C(=O)NC(=N)N)cc(C)c2O3)CC1.CS(=O)(=O)O.CS(=O)(=O)O [Example 105, N-[4-Chloro-2-(4-decyl-piperazin-1-yl)-6-methyl-10,10-dioxo-10,11-dihydro-5-oxa-10lambda*6*-thia-dibenzo[a,d]cycloheptene-8-carbonyl]-guanidine dimesylate] | 184 to 185
4 | CS(=O)(=O)O.Cc1cc(C(=O)NC(=N)N)cc2c1Oc1c(Cl)cc(S(=O)(=O)N3CCOCC3)cc1CS2(=O)=O [Example 55, N-[4-chloro-6-methyl-2-(morpholine-4-sulfonyl)-10,10-dioxo-10,11-dihydro-5-oxa-10 lambda*6*-thia-dibenzo[a,d]cycloheptene-8-carbonyl]-guanidine methane sulfonic acid salt] | 292 to 293
5 | CS(=O)(=O)O.CS(=O)(=O)O.Cc1cc(C(=O)NC(=N)N)cc2c1Oc1c(N)cccc1CS2(=O)=O [Example 159, N-[4-Amino-6-methyl-10,10-dioxo-10,11-dihydro-5-oxa-10lambda*6*-thia-dibenzo[a,d]cycloheptene-8-carbonyl)-guanidine dimesylate] | 255 to 257
6 | Cc1cc2c(cc1C(=O)N=C(N)N)S(=O)(=O)Cc1ccccc1O2 (as salt: sulfonic acid salt) [Example 27, N-(7-Methyl-10,10-dioxo-10,11-dihydro-5-oxa-10lambda*6*-thia-dibenzo[a,d]cycloheptene-8-carbonyl)-guanidine, methane sulfonic acid salt] | 272 to 274
7 | CS(=O)(=O)O.CS(=O)(=O)O.CS(=O)(=O)O.CS(=O)(=O)O.Cc1cc(C(=O)NC(=N)N)cc2c1Oc1c(Cl)cc(N3CCN(CCN4CCNCC4)CC3)cc1CS2(=O)=O [Example 124, N-{4-Chloro-6-methyl-10,10-dioxo-2-[4-(2-piperazin-1-yl-ethyl)-piperazin-1-yl)-10,11-dihydro-5-oxa-10lambda*6*-thia-dibenzo[a,d]cycloheptene-8-carbonyl}-guanidine tetramesylate] | 182 to 184
8 | Cc1cc2c(cc1C(=O)N=C(N)N)S(=O)(=O)Cc1ccccc1N2 (as salt: sulfonic acid salt) [Example 183, N-(7-Methyl-10,10-dioxo-10,11-dihydro-5H-10lambda*6*-thia-5-aza-dibenzo[a.d]cycloheptene-8-carbonyl)-guanidine, methane sulfonic acid salt] | 292 to 294

Other lines, results leading:

Row | melting point [°C] | SMILES
9 | 255 to 256 | CS(=O)(=O)O.CS(=O)(=O)O.Cc1cc(C(=O)NC(=N)N)cc2c1Oc1c(Cl)cc(NCCNCCN3CCOCC3)cc1CS2(=O)=O [Example 79, N-{4-Chloro-6-methyl-2-[2-(2-morpholin-4-yl-ethylamino)-ethylamino]-10,10-dioxo-10,11-dihydro-5-oxa-10lambda*6*-thia-dibenzo[a,d]cycloheptene-8-carbonyl}-guanidine dimesylate]
10 | 250 to 251 | CNCCNc1cc(Cl)c2c(c1)CS(=O)(=O)c1cc(C(=O)NC(=N)N)cc(C)c1O2.CS(=O)(=O)O.CS(=O)(=O)O [Example 71, N-[4-Chloro-6-methyl-2-(2-methylamino-ethylamino)-10,10-dioxo-10,11-dihydro-5-oxa-10lambda*6*-thia-dibenzo[a,d]cycloheptene-8-carbonyl)-guanidine dimesylate]
11 | 192 to 194 | CS(=O)(=O)O.CS(=O)(=O)O.Cc1cc(C(=O)NC(=N)N)cc2c1Oc1c(Cl)cc(NC(=O)CNC(C)C)cc1CS2(=O)=O [Example 141, N-(4-Chloro-8-guanidinocarbonyl-6-methyl-10,10-dioxo-10,11-dihydro-5-oxa-10lambda*6*-thia-dibenzo[a,d]cyclohepten-2-yl)-2-isopropylamino-acetamide dimesylate]
12 | 156 to 158 | CCN(CCN(CC)c1cc(Cl)c2c(c1)CS(=O)(=O)c1cc(C(=O)NC(=N)N)cc(C)c1O2)Cc1cccs1.CS(=O)(=O)O.CS(=O)(=O)O [Example 87, N-(4-Chloro-2-{ethyl-[2-(ethyl-thiophen-2-ylmethyl-amino)-ethyl]-amino}-6-methyl-10,10-dioxo-10,11-dihydro-5-oxa-10lambda*6*-thia-dibenzo[a,d]cycloheptene-8-carbonyl)-guanidine dimesylate]
13 | 196 to 198 | CS(=O)(=O)O.CS(=O)(=O)O.CS(=O)(=O)O.Cc1cc(C(=O)NC(=N)N)cc2c1Oc1c(Cl)cc(NCCNCCc3ccccn3)cc1CS2(=O)=O [Example 83, N-{4-Chloro-6-methyl-10,10-dioxo-2-[2-(2-pyridin-2-yl-ethylamino)-ethylamino]-10,11-dihydro-5-oxa-10lambda*6*-thia-dibenzo[a,d]cycloheptene-8-carbonyl}-guanidine trimesylate]
14 | 276 | CS(=O)(=O)O.CS(=O)(=O)O.CS(=O)(=O)O.Cc1cc(C(=O)NC(=N)N)cc2c1Oc1c(Cl)cc(N(CCN3CCCCC3)C(=O)C3CC3)cc1CS2(=O)=O [Example 95, Cyclopropanecarboxylic acid (4-chloro-8-guanidinocarbonyl-6-methyl-10,10-dioxo-10,11-dihydro-5-oxa-10lambda*6*-thia-dibenzo[a,d]cycloheptene-2-yl)-(2-piperidin-1-yl-ethyl)-amide trimesylate]
15 | 306 to 307 | CS(=O)(=O)O.CS(=O)(=O)O.Cc1cc(C(=O)NC(=N)N)cc2c1Oc1c(Cl)cc(N3CCN(C(=O)c4ccc[nH]4)CC3)cc1CS2(=O)=O [Example 110, N-{4-Chloro-6-methyl-10,10-dioxo-2-[4-(1H-pyrrole-2-carbonyl)-piperazin-1-yl]-10,11-dihydro-5-oxa-10lambda*6*-thia-dibenzo[a,d]cycloheptene-8-carbonyl}-guanidine dimesylate]
16 | 230 to 232 | CS(=O)(=O)O.CS(=O)(=O)O.CS(=O)(=O)O.Cc1ccc(CNc2cc(Cl)c3c(c2)CS(=O)(=O)c2cc(C(=O)NC(=N)N)cc(C)c2O3)s1 [Example 164, N-{4-Chloro-6-methyl-2-[(5-methyl-thiophen-2-ylmethyl)-amino]-10,10-dioxo-10,11-dihydro-5-oxa-10lambda*6*-thia-dibenzo[a,d]cycloheptene-8-carbonyl}-guanidine trimesylate]
17 | 218 to 220 | CS(=O)(=O)O.CS(=O)(=O)O.CS(=O)(=O)O.Cc1cc(C(=O)NC(=N)N)cc2c1Oc1c(Cl)cc(NCCN3CCN(CCO)CC3)cc1CS2(=O)=O [Example 70, N-(4-Chloro-2-{2-[4-(2-hydroxy-ethyl)-piperazin-1-yl]-ethylamino}-6-methyl-10,10-dioxo-10,11-dihydro-5-oxa-10lambda*6*-thia-dibenzo{a,d}cycloheptene-8-carbonyl)-guanidine trimesylate]
18 | 180 to 182 | CS(=O)(=O)O.Cc1cc(C(=O)NC(=N)N)cc2c1Oc1c(Cl)cc(NC(=O)CO)cc1CS2(=O)=O [Example 136, N-(4-Chloro-8-guanidinocarbonyl-6-methyl-10,10-dioxo-10,11-dihydro-5-oxa-10lambda*6*-thia-dibenzo[a,d]cycloheptene-2-yl)-2-hydroxy-acetamide methane sulfonic acid salt]
19 | 184 to 186 | CS(=O)(=O)O.CS(=O)(=O)O.CS(=O)(=O)O.Cc1cc(C(=O)NC(=N)N)cc2c1Oc1c(Cl)cc(NCCN3CCN(C)CC3)cc1CS2(=O)=O [Example 62, N-{4-Chloro-6-methyl-2-[2-(4-methylpiperazin-1-yl)-ethylamino]-10,10-dioxo-10,11-dihydro-5-oxa-10lambda*6*-thia-dibenzo[a,d]cycloheptene-8-carbonyl}-guanidine trimesylate]
20 | 222 | CS(=O)(=O)O.CS(=O)(=O)O.Cc1cc(C(=O)NC(=N)N)cc2c1Oc1c(Cl)cc(NC(=O)CN3CCN(c4cccc(C(F)(F)F)c4)CC3)cc1CS2(=O)=O [Example 145, N-(4-Chloro-8-guanidinocarbonyl-6-methyl-10,10-dioxo-10,11-dihydro-5-oxa-10lambda*6*-thia-dibenzo[a,d]cyclohepten-2-yl)-2-[4-(3-trifluoromethyl-phenyl)-piperazin-1-yl]-acetamide dimesylate]
